From the CheMixHub viscosity set
± gives the uncertainty stated by the source.

Assay: xn = mol fraction of the nth substance listed

CC(C)c1ccccc1 + CN(C)c1ccccc1
viscosity [mPa·s], 101 kPa
Settings	x1 = 0.2	x1 = 0.4	x1 = 0.6	x1 = 0.8
293.15 K	1.228 ± 0.021	1.085 ± 0.019	0.963 ± 0.017	0.865 ± 0.015
313.15 K	0.915 ± 0.016	0.817 ± 0.014	0.733 ± 0.013	0.666 ± 0.012

Oc1ccccc1Cl + CN(C)c1ccccc1
101 kPa
Settings	viscosity [mPa·s]
293.15 K, x1 = 0.1395	1.859 ± 0.019
293.15 K, x1 = 0.2654	2.43 ± 0.025
293.15 K, x1 = 0.3923	3.05 ± 0.03
293.15 K, x1 = 0.5102	3.7 ± 0.04
293.15 K, x1 = 0.5898	4.14 ± 0.05
293.15 K, x1 = 0.6926	4.69 ± 0.06
293.15 K, x1 = 0.743	4.89 ± 0.06
293.15 K, x1 = 0.7994	5 ± 0.07
293.15 K, x1 = 0.8299	4.98 ± 0.07
293.15 K, x1 = 0.896	4.74 ± 0.06
298 K, x1 = 0.1002	1.53 ± 0.039
298 K, x1 = 0.199	1.698 ± 0.044
298 K, x1 = 0.3025	2.194 ± 0.056
298 K, x1 = 0.4016	2.558 ± 0.066
298 K, x1 = 0.502	3.036 ± 0.078
298 K, x1 = 0.6009	3.48 ± 0.089
298 K, x1 = 0.6991	3.758 ± 0.096
298 K, x1 = 0.8	3.852 ± 0.099
298 K, x1 = 0.9019	3.691 ± 0.094
303 K, x1 = 0.1002	1.384 ± 0.036
303 K, x1 = 0.199	1.522 ± 0.039
303 K, x1 = 0.3025	1.937 ± 0.05
303 K, x1 = 0.4016	2.2 ± 0.056
303 K, x1 = 0.502	2.564 ± 0.066
303 K, x1 = 0.6009	2.904 ± 0.074
303 K, x1 = 0.6991	3.121 ± 0.08
303 K, x1 = 0.8	3.212 ± 0.082
303 K, x1 = 0.9019	3.106 ± 0.08
303.15 K, x1 = 0.1395	1.473 ± 0.015
303.15 K, x1 = 0.2654	1.89 ± 0.02
303.15 K, x1 = 0.3923	2.35 ± 0.03
303.15 K, x1 = 0.5102	2.79 ± 0.03
303.15 K, x1 = 0.5898	3.09 ± 0.03
303.15 K, x1 = 0.6926	3.41 ± 0.04
303.15 K, x1 = 0.743	3.505 ± 0.039
303.15 K, x1 = 0.7994	3.545 ± 0.04
303.15 K, x1 = 0.8299	3.545 ± 0.04
303.15 K, x1 = 0.896	3.41 ± 0.04
308 K, x1 = 0.1002	1.254 ± 0.032
308 K, x1 = 0.199	1.366 ± 0.035
308 K, x1 = 0.3025	1.702 ± 0.044
308 K, x1 = 0.4016	1.951 ± 0.05
308 K, x1 = 0.502	2.221 ± 0.057
308 K, x1 = 0.6009	2.476 ± 0.063
308 K, x1 = 0.6991	2.681 ± 0.069
308 K, x1 = 0.8	2.757 ± 0.071
308 K, x1 = 0.9019	2.662 ± 0.068
313 K, x1 = 0.1002	1.171 ± 0.03
313 K, x1 = 0.199	1.234 ± 0.032
313 K, x1 = 0.3025	1.527 ± 0.039
313 K, x1 = 0.4016	1.736 ± 0.045
313 K, x1 = 0.502	1.965 ± 0.05
313 K, x1 = 0.6009	2.152 ± 0.055
313 K, x1 = 0.6991	2.335 ± 0.06
313 K, x1 = 0.8	2.397 ± 0.061
313 K, x1 = 0.9019	2.36 ± 0.061
313.15 K, x1 = 0.1395	1.243 ± 0.012
313.15 K, x1 = 0.2654	1.41 ± 0.014
313.15 K, x1 = 0.3923	1.66 ± 0.017
313.15 K, x1 = 0.5102	1.915 ± 0.019
313.15 K, x1 = 0.5898	2.085 ± 0.021
313.15 K, x1 = 0.6926	2.305 ± 0.023
313.15 K, x1 = 0.743	2.4 ± 0.02
313.15 K, x1 = 0.7994	2.47 ± 0.03
313.15 K, x1 = 0.8299	2.475 ± 0.025
313.15 K, x1 = 0.896	2.45 ± 0.03
318 K, x1 = 0.1002	1.077 ± 0.028
318 K, x1 = 0.199	1.122 ± 0.029
318 K, x1 = 0.3025	1.382 ± 0.036
318 K, x1 = 0.4016	1.56 ± 0.04
318 K, x1 = 0.502	1.728 ± 0.044
318 K, x1 = 0.6009	1.899 ± 0.049
318 K, x1 = 0.6991	2.05 ± 0.053
318 K, x1 = 0.8	2.173 ± 0.056
318 K, x1 = 0.9019	2.028 ± 0.052

CCCN + CNC(C)=O
308.15 K, 101 kPa
Settings	viscosity [mPa·s]
x2 = 0.0288	0.3203 ± 0.011
x2 = 0.161	0.4788 ± 0.011
x2 = 0.322	0.6904 ± 0.012
x2 = 0.4077	0.8508 ± 0.013
x2 = 0.5208	1.16 ± 0.015
x2 = 0.6414	1.544 ± 0.017
x2 = 0.7368	1.882 ± 0.018
x2 = 0.8217	2.222 ± 0.02
x2 = 0.9755	3.191 ± 0.025

Oc1ccccc1Cl + CNc1ccccc1
viscosity [mPa·s], 101 kPa
Settings	x1 = 0.1013	x1 = 0.2024	x1 = 0.3005	x1 = 0.4032	x1 = 0.5007	x1 = 0.6027	x1 = 0.7	x1 = 0.7936	x1 = 0.9042
298 K	2.395 ± 0.061	2.887 ± 0.074	3.546 ± 0.091	4.142 ± 0.11	4.746 ± 0.12	4.883 ± 0.12	4.922 ± 0.13	4.587 ± 0.12	3.898 ± 0.1
303 K	2.112 ± 0.054	2.493 ± 0.064	2.984 ± 0.076	3.445 ± 0.088	3.801 ± 0.097	3.963 ± 0.1	3.966 ± 0.1	3.715 ± 0.095	3.352 ± 0.086
308 K	1.84 ± 0.047	2.126 ± 0.055	2.526 ± 0.065	2.863 ± 0.073	3.129 ± 0.08	3.277 ± 0.084	3.305 ± 0.085	3.117 ± 0.08	2.77 ± 0.071
313 K	1.622 ± 0.042	1.826 ± 0.047	2.115 ± 0.054	2.42 ± 0.062	2.678 ± 0.069	2.75 ± 0.07	2.793 ± 0.072	2.704 ± 0.069	2.506 ± 0.064
318 K	1.443 ± 0.037	1.598 ± 0.041	1.883 ± 0.048	2.075 ± 0.053	2.302 ± 0.059	2.34 ± 0.06	2.42 ± 0.062	2.342 ± 0.06	2.198 ± 0.056

CCC(CC)CO + CO
298.15 K, 101.33 kPa
Settings	viscosity [mPa·s]
x2 = 0.1241	4.806 ± 0.044
x2 = 0.2054	4.143 ± 0.038
x2 = 0.3133	3.38 ± 0.031
x2 = 0.4534	2.454 ± 0.023
x2 = 0.5051	2.214 ± 0.021
x2 = 0.6004	1.744 ± 0.016
x2 = 0.7073	1.33 ± 0.013
x2 = 0.8019	1.041 ± 0.0099
x2 = 0.9015	0.7598 ± 0.0075

CCCCOC(C)=O + CO
303.15 K, 101.33 kPa
Settings	viscosity [mPa·s]
x1 = 0.0963	0.528 ± 0.005
x1 = 0.1331	0.533 ± 0.005
x1 = 0.1759	0.539 ± 0.005
x1 = 0.2825	0.552 ± 0.005
x1 = 0.3931	0.566 ± 0.005
x1 = 0.4804	0.577 ± 0.005
x1 = 0.5458	0.585 ± 0.006
x1 = 0.6116	0.592 ± 0.006
x1 = 0.6478	0.596 ± 0.006
x1 = 0.7391	0.606 ± 0.006
x1 = 0.8007	0.612 ± 0.006
x1 = 0.8409	0.616 ± 0.006
x1 = 0.8858	0.621 ± 0.006
x1 = 0.924	0.624 ± 0.006

CCCN + CO
298.15 K, 100 kPa
Settings	viscosity [mPa·s]
x2 = 0.0987	0.4013 ± 0.0046
x2 = 0.1995	0.4374 ± 0.0049
x2 = 0.2868	0.4756 ± 0.0053
x2 = 0.397	0.5323 ± 0.0058
x2 = 0.4985	0.5872 ± 0.0064
x2 = 0.5475	0.6104 ± 0.0066
x2 = 0.6249	0.6414 ± 0.0069
x2 = 0.6977	0.658 ± 0.007
x2 = 0.8	0.652 ± 0.0069
x2 = 0.8982	0.6144 ± 0.0065
x2 = 0.9499	0.5827 ± 0.0061

CCC[n+]1ccccc1.F[B-](F)(F)F + CO
101 kPa
Settings	viscosity [mPa·s]
303.15 K, x1 = 0.8956	59.95 ± 1.1
323.15 K, x1 = 0.3918	4.475 ± 0.1

O=C(O)c1cc(O)c(O)c(O)c1 + CO
viscosity [mPa·s], 101 kPa
Settings	293.15 K	298.15 K	303.15 K	308.15 K	313.15 K
x1 = 0.0019	0.634 ± 0.017	0.595 ± 0.016	0.551 ± 0.015	0.517 ± 0.014	0.491 ± 0.013
x1 = 0.0038	0.664 ± 0.018	0.62 ± 0.016	0.576 ± 0.015	0.542 ± 0.014	0.505 ± 0.013
x1 = 0.0058	0.699 ± 0.019	0.66 ± 0.018	0.604 ± 0.016	0.562 ± 0.015	0.528 ± 0.014
x1 = 0.0078	0.734 ± 0.019	0.684 ± 0.018	0.635 ± 0.017	0.591 ± 0.016	0.55 ± 0.015

Oc1ccccc1Cl + CO
Settings	viscosity [mPa·s]
303.15 K, 101 kPa, x1 = 0.2447	1.911 ± 0.86

CC(C)c1ccccc1 + COC(=O)c1ccccc1
viscosity [mPa·s], 101 kPa
Settings	x2 = 0.1127	x2 = 0.2209	x2 = 0.3251	x2 = 0.429	x2 = 0.5302	x2 = 0.6213	x2 = 0.7199	x2 = 0.8144	x2 = 0.9082
303.15 K	0.729 ± 0.011	0.795 ± 0.011	0.865 ± 0.012	0.94 ± 0.01	1.029 ± 0.012	1.128 ± 0.013	1.244 ± 0.013	1.364 ± 0.014	1.502 ± 0.015
313.15 K	0.649 ± 0.011	0.694 ± 0.011	0.75 ± 0.01	0.819 ± 0.012	0.883 ± 0.012	0.961 ± 0.012	1.044 ± 0.013	1.132 ± 0.013	1.235 ± 0.014
